As usually defined, the IC50 is the point on the concentration scale where inhibition reaches its midpoint. The inhibition is how much of the control response was suppressed.

The source of these data is ChEMBL document CHEMBL1806490, “Benzisothiazolones as modulators of macrophage migration inhibitory factor” (Bioorg Med Chem Lett, 2011).

The target in one experiment is T1, Macrophage migration inhibitory factor (Homo sapiens, UniProt P14174).
T1 sequence (P14174 whole entry): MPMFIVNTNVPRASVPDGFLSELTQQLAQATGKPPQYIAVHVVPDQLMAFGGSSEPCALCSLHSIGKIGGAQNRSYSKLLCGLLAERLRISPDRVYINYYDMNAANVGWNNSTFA
Description: Inhibition of human recombinant MIF tautomerase activity using 4-hydroxyphenylpyruvate as substrate.
Details: not given
As to `N#Cc1ccc2sn(-c3ccc(Cl)cc3)c(=O)c2c1`, the IC50 was 19 µM.

As for `O=c1c2cccc(F)c2sn1-c1ccc(Cl)cc1`, the IC50 stood at 2.8 µM.

`CC(=O)OCc1cccc(-n2sc3cc(F)ccc3c2=O)c1`: the IC50 amounted to 2.3 µM.

Consider `O=c1c2cccc(F)c2sn1-c1cccc(O)c1`, for which the IC50 is 5.9 µM.

Consider `O=c1c2cc(Br)ccc2sn1-c1ccc(Cl)cc1`, for which the IC50 amounted to 7.9 µM.

For the compound `O=c1c2cc(F)ccc2sn1-c1ccc(Cl)cc1`, the IC50 was found to be 5.6 µM.

In the case of `N#Cc1ccc2c(=O)n(-c3ccc(Cl)cc3)sc2c1`, the half-maximal inhibitory concentration (IC50) stood at 3.1 µM.

Turning to `COc1ccc(-n2sc3ccc(F)cc3c2=O)cc1`, the IC50 stood at 6.5 µM.

On to `COc1cccc(-n2sc3c(F)cccc3c2=O)c1`, for which the 50% inhibitory concentration (IC50) was found to be 8 µM.

With `O=c1c2cccc(Cl)c2sn1-c1ccc(Cl)cc1`, the IC50 worked out at 6.6 µM.

Consider `O=c1c2cc(F)c(F)cc2sn1-c1ccc(Cl)cc1`, for which the IC50 came to 4.9 µM.

`O=c1c2ccc(F)c(F)c2sn1-c1ccc(Cl)cc1`: the IC50 came out at 5.6 µM.

Turning to `O=c1c2ccc(F)cc2sn1-c1cccc(Cl)c1`, the IC50 stood at 5 µM.

On to `O=c1c2ccc(Br)cc2sn1-c1ccc(Cl)cc1`, for which the IC50 is 11 µM.

Take `COc1cccc(-n2sc3cc(F)ccc3c2=O)c1`: the IC50 stood at 25 µM.

On to `O=c1c2cc([N+](=O)[O-])ccc2sn1-c1ccc(Cl)cc1`, for which the IC50 came to 6.2 µM.

Regarding `COc1cccc(-n2sc3ccc(F)cc3c2=O)c1`, the IC50 turned out to be 2.8 µM.

Take `COCc1cccc(-n2sc3cc(F)ccc3c2=O)c1`: the IC50 was 2.4 µM.

In another experiment the target is T2, MIF/CD74 (Macrophage migration inhibitory factor and HLA-DR antigens-associated invariant chain) (Homo sapiens) (UniProt P14174+P04233). The settings on record: 78 nM.
Description: Inhibition of human recombinant biotinylated MIF/CD74 ectodomain interaction at 78 nM by streptavidin alkaline phosphatase reporter system
Turning to `N#Cc1ccc(-n2sc3cc(F)ccc3c2=O)cc1`, the inhibition is 49%.

The next experiment has as its target T2, MIF/CD74 (Macrophage migration inhibitory factor and HLA-DR antigens-associated invariant chain) (Homo sapiens). Conditions: 4 nM.
Description: Inhibition of human recombinant biotinylated MIF/CD74 ectodomain interaction at 4 nM by streptavidin alkaline phosphatase reporter system
With `O=c1c2ccc(O)cc2sn1-c1ccc(Cl)cc1`, the inhibition was determined as 23%.
